Laboratory results as given in patent publication US20260378560A1, “APPROACHES TO DESIGNING AND PERFORMING COMPRESSED BIOLOGICAL EXPERIMENTS AND SYSTEMS FOR IMPLEMENTING THE SAME” (EXVIVO LABS INC., priority 2023, published 2026).

Key:
[1] = system: co-culture of three cancer cell lines; experiment: Cell viability (CellTiter Glo) of compressed target pools, co-cultures of three cell lines (Target Compression); type: cell-based
Experimental: (§1) Total cell viability was measured for each cancer cell line using an Adenosine TriPhosphate (“ATP”) assay, and more specifically an ATP-based luminescence assay (i.e., CellTiter Glo). Each cancer drug was screened at multiple concentrations ranging from one nanomolar (nM) to ten micromolar (UM) in order to generate a dose-response curve and calculate a drug response score (“DRS”) for each cancer cell line. The DRS was calculated as a continuous function of multiple parameters of the non-linear dose-response curve, including the slope at the half-maximal effective concentration (also called “EC50”) and the top and bottom asymptotes of the dose-response curve. […] After total cell viability was measured and DRS was calculated, the DRS of each cancer cell line in the pool was deconvolved for each cancer drug.
(§2) Each pool represented a co-culture of three cell lines (“Target Compression”).

JURKAT [2] = experiment: ATP-based luminescence cell viability (CellTiter Glo), drug response score, JURKAT; conditions: Target compression
Description: (§3) As part of a screen, a drug could be screened at different concentrations ranging from a lowest concentration to a highest concentration. In such a scenario, multiple data structures may be obtained by the screening platform 210. […] With these multiple data structures, the analysis module 218 can generate a dose-response curve that describes the magnitude of the response of the biological target, as a function of exposure to different concentrations of the drug. Further, the analysis module 218 can calculate a metric that is indicative of the response of the biological target. In the event that the biological target is one of multiple biological targets that are introduced to the pools of drugs, the metric can be used by the screening platform 210 to better understand the relative magnitude of responses. One example of a metric is drug-response score (“DRS”). DRS can be calculated as a continuous function of multiple parameters of the non-linear dose-response curve, including the slope at the half-maximal effective concentration (also called “EC50”) and the top and bottom asymptotes of the dose-response curve. DRS can be calculated as follows: […]
(§4) where y is a continuous function of the variable dose x, a is the maximal response (i.e., the top asymptote of the curve), b is the slope of the curve, c is the IC50 (i.e., half-maximal inhibitory concentration), and d is the minimal response (i.e., the bottom asymptote of the curve). Other examples of metrics include those output by sigmoidal and Hill slide functions that, like DRS, incorporate multiple aspects of the dose-response curve into a continuous function.
as §1
(§5) DRS for these anchor cell lines are bolded and italicized. Anchors can be identified based on frequency of the cell lines in pools with high DRS versus low DRS. At a high level, an anchor is predicted to be the cell line with the lowest individual DRS. In order to deconvolute individual cell line DRS values from pool DRS values, the anchor can start with an assumed DRS value of zero. Each pool can then be expressed as a polynomial of variables (cell lines in the pool) and constants (DRS value of the pool). The DRS value of each cell line can then be solved for using the anchor value and overlapping polynomial expressions. When multiple values are calculated for the final target solved from the polynomials, then the anchor has a non-zero value that can be determined based on the difference in the calculated value of the final target.
as §2

JURKAT [3] = experiment: as above; conditions: screened individually (Compress: None)
MOLT-4 = experiment: ATP-based luminescence cell viability (CellTiter Glo), drug response score, MOLT-4
SUP-B15 = experiment: ATP-based luminescence cell viability (CellTiter Glo), drug response score, SUP-B15; parameters: scale not given here; conditions: SUP-B15, screened individually (Compress: None)
REH = experiment: ATP-based luminescence cell viability (CellTiter Glo), drug response score, REH; parameters: scale not given here; conditions: for DRS from deconvolution: Sample compression, 5 Pick 3 pools; for drug response score (DRS): screened individually (Compress: None)
CCRF-HSB2 = experiment: ATP-based luminescence cell viability (CellTiter Glo), drug response score, CCRF-HSB2; conditions: CCRF-HSB2, screened individually (Compress: None)
[4] = system: library of cancer cell lines; experiment: Hit profile of cancer drugs across library of cancer cell lines (cell viability); type: cell-based; conditions: across cancer cell lines screened individually
Experimental: Total cell viability was measured for each cancer cell line using an Adenosine TriPhosphate (“ATP”) assay, and more specifically an ATP-based luminescence assay (i.e., CellTiter Glo). Each cancer drug was screened at multiple concentrations ranging from one nanomolar (nM) to ten micromolar (UM) in order to generate a dose-response curve and calculate a drug response score (“DRS”) for each cancer cell line. The DRS was calculated as a continuous function of multiple parameters of the non-linear dose-response curve, including the slope at the half-maximal effective concentration (also called “EC50”) and the top and bottom asymptotes of the dose-response curve. […]
Table I includes several examples of cancer drugs and their DRSs across each cancer cell line in the aforementioned experiment.

[5] = system: pooled samples of three cancer cell lines; experiment: Cell viability (CellTiter Glo) of compressed pooled samples of three individually cultured cell lines (Sample Compression); type: cell-based
Experimental: as §1
A benefit of the compression methodology is the ability to compress members of a library into pools for co-culture screens or compress individual cell cultures into pooled samples for measurement. For example, leukemia cell lines can interact in co-cultures through their immune receptors, which may result in cell activation, cytokine production, and other effects that may impact drug sensitivity and resistance. […] Instead of creating compressed target cells in pooled co-cultures, compression was instead used to enable individual cultures of each cell line, with pooled measurements to reduce reagents and instrument time. With individual cultures and sample compression, it was possible to accurately deconvolute DRS for each drug on each cell line, as shown in Table IV.

NALM-6 = experiment: ATP-based luminescence cell viability (CellTiter Glo), drug response score, NALM-6; conditions: for DRS from deconvolution: NALM-6, Target compression, 7 Pick 3 pools; for drug response score (DRS): NALM-6, screened individually (Compress: None)
Description: as §3, §4, §1, §5, §2

[6] = 5 Pick 3, Pool 1 (REH, SUP-B15, CCRF-CFM)
[7] = 5 Pick 3, Pool 2 (SUP-B15, CCRF-HSB2, MOLT-4)
[8] = 5 Pick 3, Pool 3 (SUP-B15, CCRF-CFM, CCRF-HSB2)
[9] = 5 Pick 3, Pool 4 (REH, CCRF-CFM, MOLT-4)
[10] = 5 Pick 3, Pool 5 (REH, CCRF-HSB2, MOLT-4)
[11] = 6 Pick 3, Pool 1 (REH, CCRF-CFM, MOLT-4)
[12] = 6 Pick 3, Pool 2 (REH, CCRF-HSB2, MOLT-4)
[13] = 6 Pick 3, Pool 3 (REH, CCRF-CFM, JURKAT)
[14] = 6 Pick 3, Pool 4 (SUP-B15, CCRF-HSB2, JURKAT)
[15] = 6 Pick 3, Pool 5 (SUP-B15, CCRF-CFM, JURKAT)
[16] = 6 Pick 3, Pool 6 (SUP-B15, CCRF-HSB2, MOLT-4)
[17] = 7 Pick 3, Pool 1 (SUP-B15, CCRF-CFM, JURKAT)
[18] = 7 Pick 3, Pool 2 (SUP-B15, CCRF-HSB2, NALM-6)
[19] = 7 Pick 3, Pool 3 (SUP-B15, CCRF-CFM, NALM-6)
[20] = 7 Pick 3, Pool 4 (REH, CCRF-HSB2, JURKAT)
[21] = 7 Pick 3, Pool 5 (REH, MOLT-4, NALM-6)
[22] = 7 Pick 3, Pool 6 (REH, MOLT-4, JURKAT)
[23] = 7 Pick 3, Pool 7 (CCRF-CFM, CCRF-HSB2, MOLT-4)
[24] = MOLT-4, Sample compression, 5 Pick 3 pools
[25] = MOLT-4, Target compression, 5 Pick 3 pools
[26] = MOLT-4, Target compression, 6 Pick 3 pools
[27] = MOLT-4, Target compression, 7 Pick 3 pools

SMILES | DRS of pool [1, 6] | DRS of pool [1, 7] | DRS of pool [1, 8] | DRS of pool [1, 9] | DRS of pool [1, 10] | DRS of pool [1, 11] | DRS of pool [1, 12] | DRS of pool [1, 13] | DRS of pool [1, 14] | DRS of pool [1, 15] | DRS of pool [1, 16] | DRS of pool [1, 17] | DRS of pool [1, 18] | DRS of pool [1, 19] | DRS of pool [1, 20] | DRS of pool [1, 21] | DRS of pool [1, 22] | DRS of pool [1, 23] | DRS from deconvolution (JURKAT [2]; 6 Pick 3 pools) | DRS from deconvolution (JURKAT [2]; 7 Pick 3 pools) | further results
COc1c(OCCCN2CCOCC2)ccc2c1N=C(NC(=O)c1cnc(N)nc1)N1CCN=C21 [Copanlisib] | 10.53 | 6.47 | 8.68 | 13.21 | 10.79 | 12.63 | 9.99 | 9.72 | 6.40 | 6.40 | 6.47 | 6.55 | 7.58 | 10.22 | 7.17 | 11.88 | 8.07 | 10.65 | 0.00 | 2.30 | drug response score (DRS) (JURKAT [3]): 1.34; DRS from deconvolution (MOLT-4; [24]): 12.24; DRS from deconvolution (MOLT-4; [25]): 11.02; DRS from deconvolution (MOLT-4; [26]): 8.72; DRS from deconvolution (MOLT-4; [27]): 9.83; drug response score (DRS) (SUP-B15): 2.84; DRS from deconvolution (REH): 12.99; drug response score (DRS) (REH): 13.24; drug response score (DRS) (CCRF-HSB2): 6.94; Hits (hit profile) [4]: Multiple; DRS of pool [5, 6]: 10.47; DRS of pool [5, 7]: 6.63; DRS of pool [5, 8]: 8.39; DRS of pool [5, 9]: 13.65; DRS of pool [5, 10]: 10.96; DRS from deconvolution (NALM-6): 13.74; drug response score (DRS) (NALM-6): 13.14
N#Cc1ccnc(N2C(=O)CC[C@H]2C(=O)N(c2cncc(F)c2)[C@H](C(=O)NC2CC(F)(F)C2)c2ccccc2Cl)c1 [Ivosidenib] | 0.54 | 0.60 | 0.91 | 0.63 | 0.88 | 0.60 | 0.81 | 0.77 | 0.61 | 0.57 | 0.61 | 0.57 | 0.54 | 0.34 | 0.98 | 0.27 | 0.51 | 0.95 | 0.84 | 0.70 | drug response score (DRS) (JURKAT [3]): 0.70; DRS from deconvolution (MOLT-4; [24]): 0.06; DRS from deconvolution (MOLT-4; [25]): 0.21; DRS from deconvolution (MOLT-4; [26]): 0.30; DRS from deconvolution (MOLT-4; [27]): 0.22; drug response score (DRS) (SUP-B15): 0.00; DRS from deconvolution (REH): 0.48; drug response score (DRS) (REH): 0.60; drug response score (DRS) (CCRF-HSB2): 1.60; Hits (hit profile) [4]: None; DRS of pool [5, 6]: 0.52; DRS of pool [5, 7]: 0.55; DRS of pool [5, 8]: 0.82; DRS of pool [5, 9]: 0.51; DRS of pool [5, 10]: 0.74; DRS from deconvolution (NALM-6): 0.00; drug response score (DRS) (NALM-6): 0.00
